Data: PMC8222254, “Self-assembly of an anion receptor with metal-dependent kinase inhibition and potent in vitro anti-cancer properties” (Nature Communications, 2021)
Where “and” joins values, the source holds several entries; their conditions need not be identical. Equal entries are not always repeated.

Key:
[1] = target: T1, 140 purified human kinases (Tribolium castaneum, UniProt D6WMX4); assay: Kinase inhibition screen, cell-free 33P ATP assay at 10 μM; assay type: biochemical; conditions: PINK
T1 sequence (D6WMX4 6-570): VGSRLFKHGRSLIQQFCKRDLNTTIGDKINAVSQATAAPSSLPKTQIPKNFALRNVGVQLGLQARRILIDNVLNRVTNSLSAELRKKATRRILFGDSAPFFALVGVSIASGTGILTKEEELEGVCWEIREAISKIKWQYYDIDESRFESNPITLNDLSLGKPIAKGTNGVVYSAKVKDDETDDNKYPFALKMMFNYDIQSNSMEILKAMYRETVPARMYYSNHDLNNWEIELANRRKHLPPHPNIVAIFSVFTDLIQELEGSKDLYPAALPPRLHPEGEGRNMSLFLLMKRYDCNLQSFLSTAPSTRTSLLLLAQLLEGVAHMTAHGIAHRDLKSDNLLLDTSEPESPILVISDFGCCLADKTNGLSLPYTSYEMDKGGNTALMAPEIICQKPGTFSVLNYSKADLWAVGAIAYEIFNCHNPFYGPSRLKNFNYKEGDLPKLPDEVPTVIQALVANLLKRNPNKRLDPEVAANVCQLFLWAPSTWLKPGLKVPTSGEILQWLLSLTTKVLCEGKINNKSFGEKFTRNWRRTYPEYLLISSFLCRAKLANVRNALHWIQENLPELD
Procedure: (§1) [L2Cu3]^6+ and [L2Zn3]^6+ were submitted to the MRC Protein Phosphorylation and Ubiquitination Unit International Centre for Kinase Profiling (University of Dundee) and tested in duplicate (at 10 μM) against a series of 140 purified human kinases in a cell-free kinase assay using ^33P ATP[55],[56]. The kinase gene IDs from the screen were then translated into common IDs (HGNC symbol) using biomaRt package[57],[58] in R[59] and R Studio[60] and used as input to the KinMap programme.

[2] = target: 140 purified human kinases (Homo sapiens, UniProt Q9HC98); assay: as above; assay type: biochemical
Sequence of 140 purified human kinases (Homo sapiens, UniProt Q9HC98) (Q9HC98 whole entry): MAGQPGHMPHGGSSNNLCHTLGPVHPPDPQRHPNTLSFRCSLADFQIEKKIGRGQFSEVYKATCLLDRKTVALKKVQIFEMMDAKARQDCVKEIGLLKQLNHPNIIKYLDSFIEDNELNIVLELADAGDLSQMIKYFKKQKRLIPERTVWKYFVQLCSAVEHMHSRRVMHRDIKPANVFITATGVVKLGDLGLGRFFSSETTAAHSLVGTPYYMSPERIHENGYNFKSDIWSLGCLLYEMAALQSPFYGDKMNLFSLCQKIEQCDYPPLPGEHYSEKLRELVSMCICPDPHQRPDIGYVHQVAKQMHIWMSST
Procedure: as §1

[3] = target: 140 purified human kinases (Homo sapiens, UniProt P78368); assay: as above; assay type: biochemical
Sequence of 140 purified human kinases (Homo sapiens, UniProt P78368) (P78368 whole entry): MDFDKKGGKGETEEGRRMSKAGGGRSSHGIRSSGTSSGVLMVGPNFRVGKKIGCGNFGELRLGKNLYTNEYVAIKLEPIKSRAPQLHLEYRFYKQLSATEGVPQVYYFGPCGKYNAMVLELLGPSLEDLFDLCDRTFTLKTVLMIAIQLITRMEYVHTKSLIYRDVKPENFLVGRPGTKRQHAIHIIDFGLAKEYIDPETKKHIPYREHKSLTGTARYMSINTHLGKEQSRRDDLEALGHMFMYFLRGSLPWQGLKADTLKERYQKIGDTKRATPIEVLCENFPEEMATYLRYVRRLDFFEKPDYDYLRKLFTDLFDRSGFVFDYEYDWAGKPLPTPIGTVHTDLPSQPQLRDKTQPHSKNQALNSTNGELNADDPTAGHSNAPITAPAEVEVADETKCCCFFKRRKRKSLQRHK
Procedure: as §1

[4] = target: 140 purified human kinases (Homo sapiens, UniProt Q96GD4); assay: as above; assay type: biochemical; conditions: Aurora B
Sequence of 140 purified human kinases (Homo sapiens, UniProt Q96GD4) (Q96GD4 whole entry): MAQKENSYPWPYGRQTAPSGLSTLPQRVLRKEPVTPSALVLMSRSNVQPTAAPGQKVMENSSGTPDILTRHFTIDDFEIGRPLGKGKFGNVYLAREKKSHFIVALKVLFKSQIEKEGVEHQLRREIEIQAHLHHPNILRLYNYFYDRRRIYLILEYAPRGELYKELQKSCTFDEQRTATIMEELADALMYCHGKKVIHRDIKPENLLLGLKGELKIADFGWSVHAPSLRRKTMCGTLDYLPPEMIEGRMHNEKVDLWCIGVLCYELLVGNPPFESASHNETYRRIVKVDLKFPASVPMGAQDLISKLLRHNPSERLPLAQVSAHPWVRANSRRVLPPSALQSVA
Procedure: as §1

[5] = target: 140 purified human kinases (Homo sapiens, UniProt P17252); assay: as above; assay type: biochemical; conditions: PKCa
Procedure: as §1

HCT116 p53+/+ = assay: Quantification of cellular ATP levels (CellTiterGlo); assay type: cell-based, human; conditions: for ATP levels relative to vehicle control: 20h; for % ATP Activity (Average): HCT116 p53+/+ cells, average of runs, relative to 0 µM = 100
Procedure: ARPE-19 and HCT116 p53^+/+ cells were seeded in 96-well opaque plates at a density of 7500 cells/well. 24 h after seeding, cells were treated for 20 h with a range of concentrations of [[…]]^6+, [L2Zn3]^6+, [[…]]^6+, or vehicle control (2-fold serial dilution from 100-3.125 μM) before determining total cellular ATP content by quantification of luminescence (CellTiterGlo® assay, Promega). ATP levels were normalised relative to levels in vehicle control-treated cells.

[6] = UV-Vis study of hydrolysis of 4-nitrophenyl phosphate; conditions: HEPES pH 7.4 / DMSO, blank 0.0129
Procedure: UV–Vis studies were carried out on a Cary 60 UV–Vis spectrophotometer with Thermo cycler attachment and the wavelength range of 800–250 nm was scanned every hour for 43 h whilst the solution was heated at a constant temperature of 37 °C. Progress of hydrolysation of 4-nitrophenyl phosphate to 4-nitrophenol was measured by monitoring the increase in absorption at the wavelength of 400 nm (typical for 4-nitrophenol). HEPES buffer was prepared at pH 7.4. Solutions were prepared by dissolving the ligand L (3.1 mg, 0.005 mmol) and the relevant metal salt (1.5 equivalents with respect to ligand) in DMSO (5 mL). 4-nitrophenyl phosphate (18.6 mg, 0.050 mmol) was dissolved in HEPES buffer (~10 mL, 60 mmol). These solutions were then combined and made up volumetrically to 50 mL with HEPES buffer. Where required Bu4NH2PO4 (0.5 equivalents with respect to ligand) was added to the HEPES buffer.
5. UV-Vis studies of the hydrolysis of disodium 4-nitrophenylphosphate.
UV-Vis studies were carried out on a Cary 60 UV-Vis spectrophotometer with Thermo cycler attachment and the wavelength range of 800 – 250 nm was scanned every hour for 43 hours whilst the solution was heated at a constant temperature of 37 °C. Progress of hydrolysation of 4-nitrophenyl phosphate to 4-nitrophenol was measured by monitoring the increase in absorption at the wavelength of 400 nm (typical for 4-nitrophenol). HEPES buffer was prepared at pH 7.4.
Solutions were prepared by dissolving the ligand L (3.1 mg, 0.005 mmol) and the relevant metal salt (1.5 equiv w.r.t. ligand) in DMSO (5 mL). 4 -nitrophenyl phosphate (18.6 mg, 0.050 mmol) was dissolved in HEPES buffer (~10 mL , 60 mmol) These solutions were then combined and made up volumetrically to 50 mL with HEPES buffer.
(1.5 equiv w.r.t. ligand) in DMSO (5 mL). Tetrabutylammonium phosphate (0.84 mg, 0.0025 mmol) was dissolved in HEPES buffer (~1 mL, 60 mmol) and these solutions were combined. […]

[Cu+2].[Cu+2].[Cu+2].c1ccc(-c2csc(NCCN(CCNc3nc(-c4ccccn4)cs3)CCNc3nc(-c4ccccn4)cs3)n2)nc1.c1ccc(-c2csc(NCCN(CCNc3nc(-c4ccccn4)cs3)CCNc3nc(-c4ccccn4)cs3)n2)nc1 [[L2Cu3]6+]
% Inhibition Run 1 [1]: 49.3% | % Inhibition Run 2 [1]: 39.6% | % Inhibition, Mean [1]: 44% | mean % activity [1]: 56% | % activity ([1]; Run 2): 60.4% | % Inhibition Run 1 ([2]; NEK6): 34.4% | % Inhibition Run 2 ([2]; NEK6): 27.1% | % Inhibition, Mean ([2]; NEK6): 31% | mean % activity ([2]; NEK6): 69% | % activity ([2]; NEK6, Run 1): 65.6% | % activity ([2]; NEK6, Run 2): 72.9% | % Inhibition Run 1 ([3]; CK1γ2): 23.7% | % Inhibition Run 2 ([3]; CK1γ2): 10.8% | % Inhibition, Mean ([3]; CK1γ2): 17% | mean % activity ([3]; CK1γ2): 83% | % activity ([3]; CK1γ2, Run 1): 76.3% | % activity ([3]; CK1γ2, Run 2): 89.2% | % Inhibition Run 1 [4]: 92.4% | % Inhibition Run 2 [4]: 91.3% | % Inhibition, Mean [4]: 92% | mean % activity [4]: 8% | % activity ([4]; Run 1): 7.6% | % activity ([4]; Run 2): 8.7% | % Activity inhibition Mean ([4]; 10 µM): 91.9% | % Activity inhibition Run 1 ([4]; 10 µM): 92.4% | % Activity inhibition Run 2 ([4]; 10 µM): 91.3% | % Activity remaining Run 1 ([4]; 10 µM): 7.60% | % Activity remaining Run 2 ([4]; 10 µM): 8.70% | % Inhibition Run 1 [5]: 45.4% | % Inhibition Run 2 [5]: 66.7% | % Inhibition, Mean [5]: 56% | mean % activity [5]: 44% | % activity ([5]; Run 1): 54.6% | % activity ([5]; Run 2): 33.3% | ATP levels relative to vehicle control (HCT116 p53+/+; HCT116, highest concentration of 100μM): < 50% | % ATP Activity (Average) (HCT116 p53+/+; 3.125 µM complex): 75.66% | % ATP Activity (Average) (HCT116 p53+/+; 6.25 µM complex): 75.32% | % ATP Activity (Average) (HCT116 p53+/+; 12.5 µM complex): 74.21% | % ATP Activity (Average) (HCT116 p53+/+; 25 µM complex): 71.91% | % ATP Activity (Average) (HCT116 p53+/+; 50 µM complex): 61.46% | % ATP Activity (Average) (HCT116 p53+/+; 100 µM complex): 38.46%

[Mn+2].[Mn+2].[Mn+2].c1ccc(-c2csc(NCCN(CCNc3nc(-c4ccccn4)cs3)CCNc3nc(-c4ccccn4)cs3)n2)nc1.c1ccc(-c2csc(NCCN(CCNc3nc(-c4ccccn4)cs3)CCNc3nc(-c4ccccn4)cs3)n2)nc1 [[L2Mn3]6+]
Concentration of 4-nitrophenol after 24 hours at 37°C [6]: 0.1185 mM | % ATP Activity (Average) (HCT116 p53+/+; 3.125 µM complex): 52.15% | % ATP Activity (Average) (HCT116 p53+/+; 6.25 µM complex): 40.82% | % ATP Activity (Average) (HCT116 p53+/+; 12.5 µM complex): 38.17% | % ATP Activity (Average) (HCT116 p53+/+; 25 µM complex): 35.09% | % ATP Activity (Average) (HCT116 p53+/+; 50 µM complex): 31.21% | % ATP Activity (Average) (HCT116 p53+/+; 100 µM complex): 28.58% | ATP levels relative to vehicle control (HCT116 p53+/+; HCT116 p53+/+, 6.25μM): < 50%

CC(=O)[O-].CC(=O)[O-].CC(=O)[O-].O=P([O-])([O-])[O-].[Zn+2].[Zn+2].[Zn+2].c1ccc(-c2csc(NCCN(CCNc3nc(-c4ccccn4)cs3)CCNc3nc(-c4ccccn4)cs3)n2)nc1.c1ccc(-c2csc(NCCN(CCNc3nc(-c4ccccn4)cs3)CCNc3nc(-c4ccccn4)cs3)n2)nc1 [[L2Zn3(PO4)]3+]
Concentration of 4-nitrophenol after 24 hours at 37°C [6]: 0.0164 mM

CC(=O)[O-].CC(=O)[O-].CC(=O)[O-].CC(=O)[O-].CC(=O)[O-].CC(=O)[O-].[Zn+2].[Zn+2].[Zn+2].c1ccc(-c2csc(NCCN(CCNc3nc(-c4ccccn4)cs3)CCNc3nc(-c4ccccn4)cs3)n2)nc1.c1ccc(-c2csc(NCCN(CCNc3nc(-c4ccccn4)cs3)CCNc3nc(-c4ccccn4)cs3)n2)nc1 [[L2Zn3]6+]
% Inhibition, Mean [1]: 5.35% | % Inhibition, Run 1 / Run 2 [1]: 5% and 6% | mean % activity [1]: 95% | % activity ([1]; duplicate runs): 95% and 94% | % Inhibition, Mean ([2]; NEK6): 22% | % Inhibition, Run 1 / Run 2 ([2]; NEK6): 25% and 20% | mean % activity ([2]; NEK6): 78% | % activity ([2]; NEK6, duplicate runs): 75% and 81% | % Inhibition, Mean ([3]; CK1γ2): 12% | mean % activity ([3]; CK1γ2): 88% | % activity ([3]; CK1γ2, duplicate runs): 82% and 94% | % Inhibition, Mean [4]: 50% | % Inhibition, Run 1 / Run 2 [4]: 54% and 46% | mean % activity [4]: 50% | % activity ([4]; duplicate runs): 46% and 54% | % Inhibition, Mean [5]: 42% | % Inhibition, Run 1 / Run 2 [5]: 45% and 40% | mean % activity [5]: 58% | % activity ([5]; duplicate runs): 56% and 60% | Concentration of 4-nitrophenol after 24 hours at 37°C [6]: 0.0361 mM | % ATP Activity (Average) (HCT116 p53+/+; 3.125 µM complex): 71.75% | % ATP Activity (Average) (HCT116 p53+/+; 6.25 µM complex): 63.36% | % ATP Activity (Average) (HCT116 p53+/+; 12.5 µM complex): 54.43% | % ATP Activity (Average) (HCT116 p53+/+; 25 µM complex): 46.16% | % ATP Activity (Average) (HCT116 p53+/+; 50 µM complex): 35.67% | % ATP Activity (Average) (HCT116 p53+/+; 100 µM complex): 26.26% | ATP levels relative to vehicle control (HCT116 p53+/+; HCT116 p53+/+, concentrations of ≥25μM): < 50%
